From patent US20230124862A1, “BISMUTH THIOL COMPOUNDS AND COMPOSITIONS AND METHODS OF TREATING MICROBIAL CO-INFECTIONS” (Microbion Corporation, priority 2020, published 2023)
≈ marks a conversion by molar mass, not a printed value. Where “and” joins values, the source holds several entries; their conditions need not be identical. Identical values can stand only once. Like-named read-outs stand apart in the source and are kept apart here.

How the values were obtained:
[1] = system: Candida spp.; experiment: Broth microdilution MIC (Example 11); assay type: cell-based, C. parapsilosis, C. albicans, C. glabrata, C. tropicalis; details: read-out: MIC
[2] = system: Candida krusei; experiment: Antifungal broth microdilution (Example 13); assay type: cell-based; details: C. krusei ATCC 6258, comparators, single value
[3] = system: Aspergillus spp.; experiment: Antifungal broth microdilution (Example 13); assay type: cell-based, A. niger, A. terreus, A. fumigatus, A. flavus
[4] = system: fungal pathogens; experiment: Antifungal activity, NIH/NIAID sponsored study; assay type: cell-based; details: 50% endpoint
[5] = system: C. parapsilosis ATCC 22019; experiment: Antifungal broth microdilution (Example 13), QC organism; assay type: cell-based, Candida parapsilosis; details: 24 hr, comparators, single value
[6] = system: Candida spp.; details: C. parapsilosis MMX 2323 (ATCC 22019), cited from earlier work
[7] = system: Candida krusei; details: C. krusei ATCC 6258, CLSI established QC range, cited from earlier work
[8] = system: C. parapsilosis ATCC 22019; details: C. parapsilosis ATCC 22019, CLSI established QC range, cited from earlier work
[9] = system: E. coli ATCC 25922; experiment: MIC control strain; details: QC organism, Example 13
[10] = system: S. aureus ATCC 29213; experiment: MIC control strain; details: QC organism, Example 13
[11] = system: vancomycin-intermediate Staphylococcus aureus (VISA); experiment: Broth microdilution MIC (Example 12); assay type: cell-based
[12] = system: S. aureus ATCC 29213; details: CLSI established QC range; cited from earlier work
[13] = system: S. aureus ATCC 29213; experiment: Broth microdilution MIC (Example 12), ATCC QC organism; details: ATCC QC organism (Table 102)
[14] = system: P. aeruginosa; experiment: Checkerboard FIC/FICI assay; assay type: cell-based, Pseudomonas aeruginosa; details: for FICB / MICB: Meropenem in combination with BisEDT; for MIC: Pseudomonas aeruginosa, Meropenem alone (checkerboard with BisEDT), read-out: Drug B MIC
[15] = system: Burkholderia cepacia complex; experiment: Checkerboard FIC/FICI assay; assay type: cell-based, Burkholderia spp.; details: for MIC: Meropenem alone, panel with BisEDT, read-out: Drug B MIC
[16] = system: S. aureus; experiment: Broth microdilution MIC (Example 11); assay type: cell-based, Staphylococcus aureus; details: Staphylococcus aureus, ATCC 29213 / MSSA, S. aureus MMX 101 (ATCC 29213); QC; MSSA; read-out: MIC
[17] = system: Enterococcus spp.; experiment: Broth microdilution MIC (Example 11); assay type: cell-based, E. faecalis, E. faecium; details: Lev^R Cip^R Ery^R, read-out: MIC
[18] = system: Enterobacteriaceae; details: E. coli MMX 102 (ATCC 25922); CLSI QC ranges shown in parenthesis; cited from earlier work
[19] = system: P. aeruginosa and A. baumannii; details: P. aeruginosa MMX 103 (ATCC 27853); CLSI QC ranges shown in parenthesis; cited from earlier work
[20] = system: S. aureus; details: S. aureus MMX 101 (ATCC 29213); cited from earlier work
[21] = system: S. pneumoniae; details: S. pneumoniae MMX 6837 (ATCC 49619); cited from earlier work
[22] = P. aeruginosa 6322, one value per panel row C-G
[23] = P. aeruginosa 7745, by checkerboard
[24] = P. aeruginosa 8798, by checkerboard
[25] = P. aeruginosa 9108, by checkerboard
[26] = B. cepacia 1793, Meropenem in combination with BisEDT, by checkerboard

Compound: OC(Cn1cncn1)(Cn1cncn1)c1ccc(F)cc1F [Fluconazole]
- MIC ([1]; 24 h, C. albicans MMX 7039, Sensitive, incubation 24 hr): 0.5 mg/L (≈ 1.63 µM)
- MIC ([1]; 24 h, C. glabrata MMX 7318, FLU^R, incubation 24 hr): > 64 mg/L
- MIC ([1]; 24 h, C. parapsilosis MMX 2323 (ATCC 22019), QC, incubation 24 hr): 2 mg/L (≈ 6.53 µM)
- MIC ([1]; 24 h, C. parapsilosis MMX 7370, FLU^R, incubation 24 hr): 32 mg/L (≈ 104 µM)
- MIC ([1]; 24 h, C. tropicalis MMX 7247, FLU^R, incubation 24 hr): 64 mg/L (≈ 209 µM)
- MIC ([1]; 24 h, C. tropicalis MMX 7360, FLU^R, incubation 24 hr): 64 mg/L (≈ 209 µM)
- MIC ([1]; 48 h, C. albicans MMX 7039, Sensitive, incubation 48 hr): 0.5 mg/L (≈ 1.63 µM)
- MIC ([1]; 48 h, C. albicans MMX 7055, Sensitive, incubation 48 hr): 0.5 mg/L (≈ 1.63 µM)
- MIC ([1]; 48 h, C. glabrata MMX 7318, FLU^R, incubation 48 hr): > 64 mg/L
- MIC ([1]; 48 h, C. glabrata miX 7086, FLU^R, incubation 48 hr): 64 mg/L (≈ 209 µM)
- MIC ([1]; 48 h, C. parapsilosis MMX 2323 (ATCC 22019), QC, incubation 48 hr): 2 mg/L (≈ 6.53 µM)
- MIC ([1]; 48 h, C. parapsilosis MMX 7555, FLU^R, incubation 48 hr): 64 mg/L (≈ 209 µM)
- MIC ([1]; 48 h, C. tropicalis MMX 7247, FLU^R, incubation 48 hr): > 64 mg/L
- MIC ([1]; 48 h, C. tropicalis MMX 7248, FLU^R, incubation 48 hr): > 64 mg/L
- MIC ([1]; 48 h, C. tropicalis MMX 7360, FLU^R, incubation 48 hr): > 64 mg/L
- MIC 24 hr ([2]; 24 hr): 16 mg/L (≈ 52.2 µM)
- MIC 48 hr ([2]; 48 hr): 32 mg/L (≈ 104 µM)
- MIC 24 hr ([3]; A. flavus ATCC 204304): > 64 mg/L
- MIC 48 hr ([3]; A. flavus ATCC 204304): > 64 mg/L
- MIC 24 hr ([3]; A. fumigatus ATCC MYA-3626): > 64 mg/L
- MIC 48 hr ([3]; A. fumigatus ATCC MYA-3626): > 64 mg/L
- MIC50 ([4]; Candida albicans, read-out: Antifungal activity, MIC 50%, C. albicans CA1): ≤ 0.125 mg/L
- MIC50 ([4]; Candida albicans, read-out: Antifungal activity, MIC 50%, C. albicans CA2): ≤ 0.125 mg/L
- MIC50 ([4]; Candida albicans, read-out: Antifungal activity, MIC 50%, C. albicans CA3): > 64 mg/L
- MIC50 ([4]; Candidozyma auris, read-out: Antifungal activity, MIC 50%, C. auris Cau1): > 64 mg/L
- MIC50 ([4]; Candidozyma auris, read-out: Antifungal activity, MIC 50%, C. auris Cau2): 2 mg/L (≈ 6.53 µM)
- MIC50 ([4]; Candidozyma auris, read-out: Antifungal activity, MIC 50%, C. auris Cau3): > 64 mg/L
- MIC50 ([4]; Cryptococcus neoformans, read-out: Antifungal activity, MIC 50%, C. neoformans CN1): 64 mg/L (≈ 209 µM)
- MIC50 ([4]; Cryptococcus neoformans, read-out: Antifungal activity, MIC 50%, C. neoformans CN2): 64 mg/L (≈ 209 µM)
- MIC50 ([4]; Cryptococcus neoformans, read-out: Antifungal activity, MIC 50%, C. neoformans CN3): 2 mg/L (≈ 6.53 µM)
- MIC50 ([4]; Lodderomyces parapsilosis, ATCC22019, read-out: Antifungal activity, MIC 50%, C. parapsilosis ATCC22019): 1 mg/L (≈ 3.27 µM)
- MIC50 ([4]; Pichia kudriavzevii, ATCC6258, read-out: Antifungal activity, MIC 50%, C. krusei ATCC6258): 16 mg/L (≈ 52.2 µM)
- MIC 24 hr [5]: 1 mg/L (≈ 3.27 µM)
- CLSI QC range of MIC ([6]; 24 hr): 0.5 to 4 mg/L
- CLSI QC range of MIC ([6]; 48 hr): 1 to 4 mg/L
- QC Range 24 hr ([7]; 24 hr): 8-64
- QC Range 48 hr ([7]; 48 hr): 16-128
- QC Range 24 hr ([8]; 24 hr): 0.5-4
- QC Range 48 hr ([8]; 48 hr): 1-4
- MIC 24 hr [9]: >64
- MIC 24 hr [10]: >64

Compound: CCC[C@@H]1C[C@@H](C(=O)N[C@@H]([C@H]2O[C@H](SC)[C@H](O)[C@@H](O)[C@H]2O)[C@H](C)Cl)N(C)C1 [CLI]
- MIC ([11]; S. aureus NRS 1 (hVISA)): >8 mg/L
- MIC ([11]; S. aureus NRS 2): >8 mg/L
- MIC ([11]; S. aureus NRS 3): >8 mg/L
- MIC ([11]; S. aureus NRS 4): >8 mg/L
- MIC ([11]; S. aureus NRS 13): 0.06 mg/L (≈ 0.141 µM)
- MIC ([11]; S. aureus NRS 18): >8 mg/L
- MIC ([11]; S. aureus NRS 22): >8 mg/L
- MIC ([11]; S. aureus NRS 24 (hVISA)): >8 mg/L
- MIC ([11]; S. aureus NRS 27): >8 mg/L
- QC range of MIC [12]: (0.06-0.25) μg/mL
- MIC [13]: 0.25 mg/L (≈ 0.588 µM)

Compound: C[C@@H](O)[C@H]1C(=O)N2C(C(=O)O)=C(S[C@@H]3CN[C@H](C(=O)N(C)C)C3)[C@H](C)[C@H]12 [Meropenem]
- FICB [14, 22]: 1
- MICB [14, 22]: 16 µg/mL
- FICB [14, 23]: 0.25 and 0.5
- MICB [14, 23]: 4 µg/mL and 8 µg/mL
- FICB [14, 24]: 1
- MICB [14, 24]: 32 µg/mL
- FICB [14, 25]: 1
- MICB [14, 25]: 0.001 µg/mL
- MIC ([14]; P. aeruginosa 6977): 8 mg/L
- MIC ([14]; P. aeruginosa 7745): 16 mg/L
- MIC ([14]; P. aeruginosa 8798): 32 mg/L
- FICB ([15]; B. cenocepacia 548, FIC of Meropenem (Drug B) in combination with BisEDT): 0.5 and 1
- MICB ([15]; B. cenocepacia 548, MIC of Meropenem (Drug B) in combination with BisEDT): 2 µg/mL and 4 µg/mL
- MIC ([15]; B. cenocepacia 548): 4 mg/L
- FICB ([15]; B. cenocepacia 813, FIC of Meropenem (Drug B) in combination with BisEDT): 0.5 and 1
- MICB ([15]; B. cenocepacia 813, MIC of Meropenem (Drug B) in combination with BisEDT): 1 µg/mL and 2 µg/mL
- MIC ([15]; B. cenocepacia 813): 2 mg/L
- FICB ([15]; B. cepacia 546, Meropenem in combination with BisEDT, by checkerboard): 1 and 2
- FICB [15, 26]: 2 and 4
- MICB [15, 26]: 8 µg/mL and 16 µg/mL
- FICB ([15]; B. multivorans 1795, FIC of Meropenem (Drug B) in combination with BisEDT): 1
- MICB ([15]; B. multivorans 1795, MIC of Meropenem (Drug B) in combination with BisEDT): 4 µg/mL
- MIC [16]: 0.06 mg/L (≈ 0.156 µM)
- MIC ([17]; E. faecalis MMX 8960, VRE): 8 mg/L (≈ 20.9 µM)
- MIC ([17]; E. faecalis MMX 8962, VRE): 2 mg/L (≈ 5.22 µM)
- MIC ([17]; E. faecium MMX 485, VRE vanA): > 64 mg/L
- MIC ([17]; E. faecium MMX 752, VRE vanA): > 64 mg/L
- MIC, CLSI QC range [18]: (0.008-0.06) μg/mL
- MIC, CLSI QC range [19]: (0.25-1) μg/mL
- CLSI QC range of MIC [20]: (0.03-0.12) μg/mL
- CLSI QC range of MIC [21]: (0.06-0.25) μg/mL
